For 5 molecules, MIC results are on record in ChEMBL document CHEMBL3244022, “Total syntheses of (+/-)-1-carbacefoxitin and -cefamandole and (+/-)-1-oxacefamandole” (1977).

Type in all cases: functional
One assay deals with Staphylococcus aureus. Put plainly: Antimicrobial activity against Staphylococcus aureus 2865 by agar dilution method. In general terms: In agar dilution, organisms are placed on agar that contains the substance at set levels.
In the next assay the test system is Streptococcus pyogenes. Briefly: Antimicrobial activity against Streptococcus pyogenes 3124 by agar dilution method.
The next assay relates to Enterococcus. Put plainly: Antimicrobial activity against Enterococcus 2862 by agar dilution method.
The test system of the next assay is Klebsiella. Briefly: Antimicrobial activity against Klebsiella 2882 by agar dilution method.
The subject of another assay is Escherichia coli. Briefly: Antimicrobial activity against Escherichia coli 2884 by agar dilution method.
Another assay has as its system Enterobacter. Put plainly: Antimicrobial activity against Enterobacter 2902 by agar dilution method.
The subject of the next assay is Serratia. Put plainly: Antimicrobial activity against Serratia 2852 by agar dilution method.
The subject of assay [1] is Enterobacteriaceae. Put plainly: Antimicrobial activity against Aerobacter 2826 by agar dilution method.
Assay [2] relates to Enterobacteriaceae. Briefly: Antimicrobial activity against Aerobacter 2828 by agar dilution method.
In a further assay the test system is Pseudomonas. Put plainly: Antimicrobial activity against Pseudomonas by agar dilution method.
The next assay concerns Providencia. Briefly: Antimicrobial activity against Providencia 2851 by agar dilution method.
The test system of the next assay is Proteus vulgaris. Briefly: Antimicrobial activity against Proteus vulgaris 2829 by agar dilution method.
The next assay deals with Morganella morganii. Put plainly: Antimicrobial activity against Proteus morganii 2834 by agar dilution method.
A further assay relates to Proteus mirabilis. Put plainly: Antimicrobial activity against Proteus mirabilis 2830 by agar dilution method.

In brackets after ≈: the same amount, converted by molar mass. A value given as a limit tells only on which side of the number the result lay.

What is called MIC is the lowest concentration found to suppress growth. A lower MIC goes with inhibition by little substance. With `Cn1nnnc1SCC1=C(C(=O)O)N2C(=O)[C@@H](NC(=O)[C@H](O)c3ccccc3)[C@H]2OC1` (racemic), the MIC in the assay on Staphylococcus aureus was under 0.39 µg/mL; in the assay with Streptococcus pyogenes, under 0.39 µg/mL; in the assay with Enterococcus it was 25 µg/mL (≈ 56 µM); against Klebsiella, 0.78 µg/mL (≈ 1.75 µM); against Escherichia coli, under 0.39 µg/mL; against Enterobacter it was 12.5 µg/mL (≈ 28 µM). Further, the MIC against Serratia is over 100 µg/mL; with Enterobacteriaceae [1], under 0.39 µg/mL; in the assay with Enterobacteriaceae [2], 25 µg/mL (≈ 56 µM); with Pseudomonas it was over 100 µg/mL; with Providencia, 2.56 µg/mL (≈ 5.73 µM); against Proteus vulgaris, 1.28 µg/mL (≈ 2.87 µM). In addition, the MIC worked out at 1.28 µg/mL (≈ 2.87 µM) in the assay on Morganella morganii and 100 µg/mL (≈ 224 µM) against Proteus mirabilis.

As for `CO[C@@]1(NC(=O)Cc2cccs2)C(=O)N2C(C(=O)O)=C(COC(N)=O)CC[C@@H]21` (racemic), the MIC is 6.25 µg/mL (≈ 15.3 µM) with Staphylococcus aureus; 6.25 µg/mL (≈ 15.3 µM) against Streptococcus pyogenes; over 100 µg/mL in the assay on Enterococcus; 6.25 µg/mL (≈ 15.3 µM) in the assay on Klebsiella; 12.5 µg/mL (≈ 30.5 µM) with Escherichia coli; over 100 µg/mL in the assay on Enterobacter. For the same molecule, the MIC with Serratia is 50 µg/mL (≈ 122 µM); in the assay with Enterobacteriaceae [1], 12.5 µg/mL (≈ 30.5 µM); in the assay on Enterobacteriaceae [2], over 100 µg/mL; with Pseudomonas it was over 100 µg/mL; in the assay on Providencia it was 6.25 µg/mL (≈ 15.3 µM); in the assay on Proteus vulgaris, 6.25 µg/mL (≈ 15.3 µM). Further, the minimal inhibitory concentration (MIC) against Morganella morganii came to 6.25 µg/mL (≈ 15.3 µM); in the assay on Proteus mirabilis, 12.5 µg/mL (≈ 30.5 µM).

Take `CO[C@@]1(NC(=O)Cc2cccs2)C(=O)N2C(C(=O)O)=C(COC(N)=O)CS[C@@H]21` [CEFOXITIN]: the MIC against Staphylococcus aureus was 1.56 µg/mL (≈ 3.65 µM); against Streptococcus pyogenes it was 0.78 µg/mL (≈ 1.82 µM); against Enterococcus, over 100 µg/mL; against Klebsiella, 3.12 µg/mL (≈ 7.3 µM); in the assay with Escherichia coli, 1.56 µg/mL (≈ 3.65 µM); in the assay on Enterobacter, over 100 µg/mL. Also, the minimal inhibitory concentration (MIC) against Serratia was 25 µg/mL (≈ 58.5 µM); with Enterobacteriaceae [1] it was 0.78 µg/mL (≈ 1.82 µM); in the assay with Enterobacteriaceae [2], over 100 µg/mL; with Pseudomonas, over 100 µg/mL; against Providencia it was 1.56 µg/mL (≈ 3.65 µM); with Proteus vulgaris it was under 0.39 µg/mL. Besides, the MIC with Morganella morganii stood at 6.25 µg/mL (≈ 14.6 µM); with Proteus mirabilis, 1.56 µg/mL (≈ 3.65 µM).

`Cn1nnnc1SCC1=C(C(=O)O)N2C(=O)[C@@H](NC(=O)[C@H](O)c3ccccc3)[C@H]2SC1` [CEFAMANDOLE]: the MIC was under 0.39 µg/mL against Staphylococcus aureus; under 0.39 µg/mL against Streptococcus pyogenes; 50 µg/mL (≈ 108 µM) in the assay with Enterococcus; 1.56 µg/mL (≈ 3.37 µM) with Klebsiella; under 0.39 µg/mL in the assay on Escherichia coli; 50 µg/mL (≈ 108 µM) against Enterobacter. Moreover, the MIC in the assay with Serratia is over 100 µg/mL; against Enterobacteriaceae [1] it was under 0.39 µg/mL; in the assay on Enterobacteriaceae [2] it was 50 µg/mL (≈ 108 µM); against Pseudomonas, over 100 µg/mL; against Providencia it was 3.12 µg/mL (≈ 6.75 µM); in the assay on Proteus vulgaris, 1.56 µg/mL (≈ 3.37 µM). For the same molecule, the MIC with Morganella morganii and against Proteus mirabilis was 6.25 µg/mL (≈ 13.5 µM) throughout.

`Cn1nnnc1SCC1=C(C(=O)O)N2C(=O)[C@@H](NC(=O)C(O)c3ccccc3)[C@H]2CC1` (mixture of isomers): the MIC was 1.56 µg/mL in the assay on Staphylococcus aureus; 3.12 µg/mL in the assay with Streptococcus pyogenes; over 100 µg/mL against Enterococcus; 1.56 µg/mL with Klebsiella; 1.56 µg/mL against Escherichia coli; over 100 µg/mL against Enterobacter. Besides, the MIC against Serratia was over 100 µg/mL; in the assay with Enterobacteriaceae [1] it was 1.56 µg/mL; against Enterobacteriaceae [2], over 100 µg/mL; against Pseudomonas, over 100 µg/mL; in the assay on Providencia, 6.25 µg/mL; with Proteus vulgaris it was 6.25 µg/mL. Moreover, the MIC against Morganella morganii came out at 6.25 µg/mL; in the assay with Proteus mirabilis, 25 µg/mL.
